Reference: patent US9096597B2 (priority 2007, dated 2015)
Where a name gives a salt, the structure may show the parent alone. Read-outs that look alike come from different tables or passages of the source.

Legend:
[1] = system: Lassa GP-pseudotyped-virus; assay: microbe, parasite or virus in culture; assay type: cell-based, Lassa fever virus
[2] = system: VSVg pseudotyped virus; assay: microbe, parasite or virus in culture; assay type: cell-based, vesicular stomatitis virus (VSV); conditions: Vesicular stomatitis virus, read-out: Activity (EC50 in μM vs. pseudotyped virus) VSVg
[3] = system: Machupo pseudotyped virus; assay: organism not typed; assay type: cell-based; conditions: read-out: Activity (EC50 in μM vs. pseudotyped virus) Machupo
[4] = system: Sabiá pseudotyped virus; assay: organism not typed; assay type: cell-based; conditions: read-out: Activity (EC50 in μM vs. pseudotyped virus) Sabiá
[5] = system: Junín pseudotyped virus; assay: organism not typed; assay type: cell-based; conditions: read-out: Activity (EC50 in μM vs. pseudotyped virus) Junín
[6] = system: Guanarito pseudotyped virus; assay: organism not typed; assay type: cell-based; conditions: read-out: Activity (EC50 in μM vs. pseudotyped virus) Guanarito
[7] = Human immunodeficiency virus 1, read-out: Activity (EC50 in μM vs. pseudotyped virus) Lassa

Row | Compound | EC50 [1, 7] | EC50 [2] | EC50 [3] | EC50 [4] | potency against viral entry mediated by the Lassa envelope glycoprotein [1] | EC50 ([1]; Human immunodeficiency virus 1, HEK-293T, read-out: EC50 against Lassa GP-pseudotyped-virus) | EC50 [5] | EC50 [6]
1 | CCOc1ccc(-n2cnc3nc(NCc4ccc(CC)cc4)ccc32)cc1 [Compound 4, [1-(4-Ethoxy-phenyl)-1H-imidazo[4,5-b]pyridin-5-yl]-(4-ethyl-benzyl)-amine] | < 0.05 µM | > 50 µM | 0.05 to 1 µM | 0.05 to 1 µM | – | – | – | –
2 | CCOc1ccc(-n2cnc3cc(N(Cc4ccc(CC)cc4)C(=O)c4ccccc4)cnc32)cc1 [Compound 7, N-[3-(4-Ethoxy-phenyl)-3H-imidazo[4,5-b]pyridin-6-yl]-N-(4-ethyl-benzyl)-benzamide] | 0.05 to 1 µM | – | 0.05 to 1 µM | – | – | – | – | –
3 | CCOc1ccc(-n2cnc3cc(N(Cc4ccc(CC)cc4)C(=O)CN(C)C)cnc32)cc1 [Compound 8, 2-Dimethylamino-N-[3-(4-ethoxy-phenyl)-3H-imidazo[4,5-b]pyridin-6-yl]-N-(4-ethyl-benzyl)-acetamide hydrochloride] | 0.05 to 1 µM | – | 0.05 to 1 µM | – | – | – | – | –
4 | CCOc1ccc(-n2cnc3cc(NCc4ccc(CC)cc4)cnc32)cn1 [Compound 2, [3-(6-Ethoxy-pyridin-3-yl)-3H-imidazo[4,5-b]pyridin-6-yl]-(4-ethyl-benzyl)-amine] | < 0.05 µM | 1 to 50 µM | – | – | – | – | – | –
5 | CCOc1ccc(-n2cnc3cc(NCc4ccc(CC)cc4)cnc32)cc1 [Compound 1, [3-(4-Ethoxy-phenyl)-3H-imidazo[4,5-b]pyridin-6-yl]-(4-ethyl-benzyl)-amine] | < 0.05 µM | 1 to 50 µM | < 0.05 µM | < 0.05 µM | significantly increased potency | 0.00013 µM | < 0.05 µM | < 0.05 µM
6 | CCOc1ccc(-n2cnc3cc(N(Cc4ccc(CC)cc4)S(=O)(=O)c4ccccc4)cnc32)cc1 [Compound 11, N-[3-(4-Ethoxy-phenyl)-3H-imidazo[4,5-b]pyridin-6-yl]-N-(4-ethyl-benzyl)-benzenesulfonamide] | 0.05 to 1 µM | – | 0.05 to 1 µM | – | – | – | – | –
7 | CCOc1ccc(-n2cnc3cc(N(Cc4ccc(CC)cc4)C(C)=O)cnc32)cc1 [Compound 6, N-[3-(4-Ethoxy-phenyl)-3H-imidazo[4,5-b]pyridin-6-yl]-N-(4-ethyl-benzyl)-acetamide] | 0.05 to 1 µM | – | 1 to 50 µM | – | – | – | – | –
8 | CCOc1ccc(-n2cnc3cc(N(Cc4ccc(CC)cc4)C(=O)CCC(=O)O)cnc32)cc1 [Compound 9, N-[3-(4-Ethoxy-phenyl)-3H-imidazo[4,5-b]pyridin-6-yl]-N-(4-ethyl-benzyl)-succinamic acid] | 1 to 50 µM | – | 1 to 50 µM | – | – | – | – | –
9 | CCOc1ccc(-n2cnc3cc(NCc4ccc(C)cn4)cnc32)cc1 [Compound 3, [3-(4-Ethoxy-phenyl)-3H-imidazo[4,5-b]pyridin-6-yl]-(5-methyl-pyridin-2-ylmethyl)-amine] | 0.05 to 1 µM | > 50 µM | – | – | – | – | – | –
10 | CCOc1ccc(-n2nnc3cc(NCc4ccc(CC)cc4)cnc32)cc1 [Compound 12, [3-(4-Ethoxy-phenyl)-3H-[1,2,3]triazolo[4,5-b]pyridin-6-yl]-(4-ethyl-benzyl)-amine] | < 0.05 µM | > 50 µM | 0.05 to 1 µM | 0.05 to 1 µM | – | – | – | –
11 | CCOc1ccc(-n2cnc3cc(N(Cc4ccc(CC)cc4)S(C)(=O)=O)cnc32)cc1 [Compound 10, N-[3-(4-Ethoxy-phenyl)-3H-imidazo[4,5-b]pyridin-6-yl]-N-(4-ethyl-benzyl)-methanesulfonamide] | 1 to 50 µM | – | 1 to 50 µM | – | – | – | – | –
